# Laboratory results taken from patent EP3492066A1, “COSMETIC PREPARATIONS HAVING A CALMING EFFECT” (Beiersdorf AG, priority 2010, dated 2012).
# How the values were obtained:
# Probandinnen [1] = assay: Short stress test (unpleasant pictures, loud drum rhythm) with Self-Assessment Manikin (SAM) rating of nervousness; format: in vivo, Menschen; conditions: im Mittel, compared with Placebo-behandelte Probandinnen
# Protocol: Zur Ergänzung der zuvor ermittelten Daten wurde mit den Probandinnen ein kurzer Stresstest durchgeführt, bei dem sie nach einer Anfangsentspannung für 1 min einer schnellen Folge von unangenehmen Bildern (Spinnen, Feuer, etc.) auf einem Fernsehbildschirm ausgesetzt wurden. Die visuellen Reize wurden von einem lauten Trommelrhythmus begleitet. Vor und nach dem Stresstest wurden die Probandinnen gebeten, mit Hilfe eines Self-Assessment Manikins (SAM), [formula] ihre eigene Nervosität zu bewerten.
# Beispielhaft sind in Abbildung 2 die Werte des SAM-Fragebogens für Nervosität für 2,6-Dimethyl-7-octen-2-ol und Tetrahydro-6-pentyl-2H-pyran-2-one dargestellt. Abbildung 2 zeigt die Angaben der Probandinnen zu ihrer Nervosität vor und nach dem Stresstest als Differenz (nachher minus vorher).
# Probandinnen [2] = assay: Olfactometer test with psychophysiological measurement (blood volume pulse amplitude, heart rate) versus placebo; format: in vivo, Menschen; conditions: for Blutvolumenpuls Amplitude (Abbildung 1): 0,025% Tetrahydro-6-pentyl-2H-pyran-2-one (N=9), 0,075% 2,6-Dimethyl-7-octen-2-ol (N=10), gegenüber Placebokontrolle Propylenglycol (N=10); for Blutvolumenpuls Amplitude: gegenüber der Placebokontrolle (Propylenglykol), 5 min fragrance by olfactometer; for Änderung der Herzrate: normalised
# From the text: Es wurde in weiteren Tests die beruhigende Wirkung der Duftstoffe 6-Methyl-5-Hepten-2-one, Octan-2-one, Heptan-2-one, Nonan-2-one, 5-hexyldihydro-5-methyl-2(3H)-furanone, Tetrahydro-6-pentyl-2H-pyran-2-one, Octanal und 2,6-Dimethyl-7-octen-2-ol auf den Menschen untersucht. Dazu wurde ein Testdesign gewählt, bei dem mit Hilfe eines Olfaktometers (Burghart) kosmetisch einsetzbare und kommerziell erhältliche Duftstoffe an die Nase des Probanden gebracht wurden. Die Duftstoffe wurden in Propylenglykol (Caelo) gelöst. Als Placebokontrolle wurde entsprechend ebenfalls Propylenglykol eingesetzt
# Die Probandinnen wurden in einer bequemen, leicht nach hinten gelehnten Haltung auf einem Sessel platziert. Das Ende des Olfaktometerschlauches wurde im Abstand von etwa 10 cm vor der Nase des Probanden platziert und mit Hilfe eines Stativs fixiert. Der Versuchsaufbau (Nexus, Olfaktometer) wurde von den Probandinnen mit Hilfe einer spanischen Wand abgeschirmt, um die Teilnehmerinnen nicht durch das Messgeschehen abzulenken. Die Messungen fanden in einem hellen, gut gelüfteten, auf 21°C temperierten Raum statt.
# An den Untersuchungen nahmen Probandinnen im Alter von 20 bis 40 Jahren teil. Das Durchschnittsalter betrug 31 Jahre. Die Probandinnen besaßen einen BMI zwischen 19 und 25. Die Probandinnen wurden gebeten, einen Tag vor Studienbeginn auf Parfum und Body Lotion zu verzichten. Am Messtag selbst durften die Teilnehmerinnen weder Parfum, noch parfümierte Deoprodukte, Body Lotions, Gesichtscreme, Handcreme und Haarspray benutzen. Sie mussten auf Kaffee, Schwarztee, Fruchtsäfte und Zigaretten verzichten und durften 30 min vor Testbeginn nichts mehr essen und ausschließlich Wasser trinken.
# Die Einstellungen am Olfaktometer sahen einen Luftstrom von 4 L/min vor. Die externe Druckluft betrug 2 bar. Die Probandinnen wurden mit den entsprechenden Messelektroden bestückt und akklimatisierten zunächst für 1 min. Diese Zeit wurde gleichzeitig genutzt, um sicherzustellen, dass sich die Elektroden zur Bestimmung psychophysiologischer Parameter in einem schwankungsfreien und messbereiten Zustand befinden. Alle Probandinnen erhielten im Anschluss für 5 min Kontrollluft ohne Duft. Während dieser Zeit sollten alle Probandinnen einen emotional neutralen Zustand erreichen. Anschließend erhielten die Probandinnen für 5 min einen Duftstoff, der so niedrig konzentriert war, dass er nicht unangenehm oder gar stechend empfunden wurde. Alle Duftstoffe wurden in Propylenglykol gelöst. Als Placebokontrolle diente ebenfalls Propylenglykol. Während der gesamten 10 min wurden die psychophysiologischen Messparameter dermale Aktivität, Herzrate und Blutvolumenpuls mit Hilfe des Messgeräts NeXus und der Software Biotrace (Mind Media B.V.) erfasst. Die Differenz zwischen maximalem und minimalem Blutvolumen innerhalb eines Herzzyklus nennt man Blutvolumenpuls Amplitude. Dieser Wert sinkt bei psychischer Belastung ab. Umgekehrt kann ein Anstieg als Entspannungsreaktion interpretiert werden.
# Um eine gute Vergleichbarkeit der Messdaten der verschiedenen Testgruppen gewährleisten zu können, wurden die Rohdaten der Messung normiert. Dafür wurde der Mittelwert der BVP Amplitude 1 min vor Duftapplikation von allen anderen Messwerten abgezogen. Die Summe der Differenzen ergibt die Änderung der BVP Amplitude in µV.
Structure (SMILES),Stress-vermittelte Änderung der Nervosität (SAM) (Probandinnen [1]),Blutvolumenpuls Amplitude (Probandinnen [2]),other results
"C=CC(C)CCCC(C)(C)O (stereo not shown) [2,6-Dimethyl-7-octen-2-ol]",geringeren Stress-vermittelten Änderung der Nervosität,Anstieg,Blutvolumenpuls Amplitude (Abbildung 1) (Probandinnen [2]): Anstieg
CCCCCCC1(C)CCC(=O)O1 (stereo not shown) [5-hexyldihydro-5-methyl-2(3H)-furanone],geringeren Stress-vermittelten Änderung der Nervosität,Beruhigungs- bzw. Entspannungsreaktion,–
CC(=O)CCC=C(C)C [6-Methyl-5-Hepten-2-one],geringeren Stress-vermittelten Änderung der Nervosität,Beruhigungs- bzw. Entspannungsreaktion,–
CCCCCC(C)=O [Heptan-2-one],geringeren Stress-vermittelten Änderung der Nervosität,Beruhigungs- bzw. Entspannungsreaktion,–
CCCCCCCC(C)=O [Nonan-2-one],geringeren Stress-vermittelten Änderung der Nervosität,Beruhigungs- bzw. Entspannungsreaktion,–
CCCCCCC(C)=O [Octan-2-one],geringeren Stress-vermittelten Änderung der Nervosität,Beruhigungs- bzw. Entspannungsreaktion,–
CCCCCCCC=O [Octanal],geringeren Stress-vermittelten Änderung der Nervosität,Beruhigungs- bzw. Entspannungsreaktion,–
CCCCCC1CCCC(=O)O1 (stereo not shown) [Tetrahydro-6-pentyl-2H-pyran-2-one],geringeren Stress-vermittelten Änderung der Nervosität,Anstieg,"Blutvolumenpuls Amplitude (Abbildung 1) (Probandinnen [2]): Anstieg; Änderung der Herzrate (Probandinnen [2]; Duftphase, Zeit 300 s, 0,025% in Propylenglykol): -2,51 bpm; Änderung der Herzrate (Probandinnen [2]; Duftphase, Zeit 315 s, 0,025% in Propylenglykol): -3,27 bpm; Änderung der Herzrate (Probandinnen [2]; Duftphase, Zeit 330 s, 0,025% in Propylenglykol): -2,71 bpm; Änderung der Herzrate (Probandinnen [2]; Duftphase, Zeit 435 s, 0,025% in Propylenglykol): -1,94 bpm; Änderung der Herzrate (Probandinnen [2]; Duftphase, Zeit 540 s, 0,025% in Propylenglykol): -2,91 bpm; Änderung der Herzrate (Probandinnen [2]; Duftphase, Zeit 585 s, 0,025% in Propylenglykol): -2,44 bpm; Änderung der Herzrate (Probandinnen [2]; Kontrollluft (before fragrance application), Zeit 30 s, 0,025% group): -1,26 bpm; Änderung der Herzrate (Probandinnen [2]; Kontrollluft (before fragrance application), Zeit 90 s, 0,025% group): -1,26 bpm; Änderung der Herzrate (Probandinnen [2]; Kontrollluft (before fragrance application), Zeit 135 s, 0,025% group): -1,65 bpm; Änderung der Herzrate (Probandinnen [2]; Kontrollluft (before fragrance application), Zeit 180 s, 0,025% group): -2,16 bpm; Änderung der Herzrate (Probandinnen [2]; Kontrollluft (before fragrance application), Zeit 225 s, 0,025% group): -0,63 bpm; Änderung der Herzrate (Probandinnen [2]; Kontrollluft (before fragrance application), Zeit 285 s, 0,025% group): -0,02 bpm; Herzrate (Probandinnen [2]; result in words, im Vergleich zur Placebokontrolle, after fragrance application): Senkung der Herzrate"
